In PubChem BioAssay (NCI):
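48-hour exposure; five concentrations; linearly interpolated endpoints. TGI marks complete inhibition of growth.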

Key:
Assay in all cases: NCI-60 cell line screen, 48 h
786-0 renal = system: 786-0 renal
A498 renal = system: A498 renal
A549 NSCLC = system: A549 NSCLC
ACHN renal = system: ACHN renal
BT-549 breast = system: BT-549 breast
CAKI-1 renal = system: CAKI-1 renal
CCRF-CEM leukemia = system: CCRF-CEM leukemia
COLO 205 colon = system: COLO 205 colon
DU-145 prostate = system: DU-145 prostate
EKVX NSCLC = system: EKVX NSCLC
HCC-2998 colon = system: HCC-2998 colon
HCT-116 colon = system: HCT-116 colon
HCT-15 colon = system: HCT-15 colon
HL-60(TB) leukemia = system: HL-60(TB) leukemia
HOP-62 NSCLC = system: HOP-62 NSCLC
HOP-92 NSCLC = system: HOP-92 NSCLC
HS 578T breast = system: HS 578T breast
HT29 colon = system: HT29 colon
IGROV1 ovarian = system: IGROV1 ovarian
K-562 leukemia = system: K-562 leukemia
KM12 colon = system: KM12 colon
LOX IMVI melanoma = system: LOX IMVI melanoma
M14 melanoma = system: M14 melanoma
MALME-3M melanoma = system: MALME-3M melanoma
MCF7 breast = system: MCF7 breast
MDA-MB-231 breast = system: MDA-MB-231 breast
MDA-MB-435 = system: MDA-MB-435
MDA-N = system: MDA-N
MOLT-4 leukemia = system: MOLT-4 leukemia
NCI-H226 lung = system: NCI-H226 lung
NCI-H23 lung = system: NCI-H23 lung
NCI-H522 lung = system: NCI-H522 lung
NCI/ADR-RES ovarian = system: NCI/ADR-RES ovarian
OVCAR-3 ovarian = system: OVCAR-3 ovarian
OVCAR-4 ovarian = system: OVCAR-4 ovarian
OVCAR-5 ovarian = system: OVCAR-5 ovarian
OVCAR-8 ovarian = system: OVCAR-8 ovarian
PC-3 prostate = system: PC-3 prostate
RPMI-8226 leukemia = system: RPMI-8226 leukemia
RXF 393 renal = system: RXF 393 renal
SF-268 CNS = system: SF-268 CNS
SF-295 CNS = system: SF-295 CNS
SF-539 CNS = system: SF-539 CNS
SK-MEL-2 melanoma = system: SK-MEL-2 melanoma
SK-MEL-5 melanoma = system: SK-MEL-5 melanoma
SK-OV-3 ovarian = system: SK-OV-3 ovarian
SN12C renal = system: SN12C renal
SNB-19 CNS = system: SNB-19 CNS
SNB-75 CNS = system: SNB-75 CNS
SR leukemia = system: SR leukemia
SW-620 colon = system: SW-620 colon
T-47D breast = system: T-47D breast
TK-10 renal = system: TK-10 renal
U251 CNS = system: U251 CNS
UACC-257 melanoma = system: UACC-257 melanoma
UACC-62 melanoma = system: UACC-62 melanoma
UO-31 renal = system: UO-31 renal
SK-MEL-28 melanoma = system: SK-MEL-28 melanoma

N#CC1=C(N)N(/N=C/c2ccco2)C(c2ccco2)C1(C#N)C#N (stereo unspecified)
TGI (786-0 renal): 33.1 µM | TGI (A498 renal): 29.9 µM | TGI (A549 NSCLC): 56.2 µM | TGI (ACHN renal): 30.2 µM | TGI (BT-549 breast): 34.9 µM | TGI (CAKI-1 renal): 37.9 µM | TGI (CCRF-CEM leukemia): 19.2 µM | TGI (COLO 205 colon): 28.9 µM | TGI (DU-145 prostate): 32.1 µM | TGI (EKVX NSCLC): 47.3 µM | TGI (HCC-2998 colon): 34.7 µM | TGI (HCT-116 colon): 25.3 µM | TGI (HCT-15 colon): 38.8 µM | TGI (HL-60(TB) leukemia): 7.69 µM | TGI (HOP-62 NSCLC): 51.1 µM | TGI (HOP-92 NSCLC): 33.5 µM | TGI (HS 578T breast): 97.2 µM | TGI (HT29 colon): 32.2 µM | TGI (IGROV1 ovarian): 30 µM | TGI (K-562 leukemia): 85.1 µM | TGI (KM12 colon): 28.7 µM | TGI (LOX IMVI melanoma): 28.2 µM | TGI (M14 melanoma): 43.6 µM | TGI (MALME-3M melanoma): 43.4 µM | TGI (MCF7 breast): 43.2 µM | TGI (MDA-MB-231 breast): 38.6 µM | TGI (MDA-MB-435): 41.4 µM | TGI (MDA-N): 37.4 µM | TGI (MOLT-4 leukemia): 30.3 µM | TGI (NCI-H226 lung): 37.7 µM | TGI (NCI-H23 lung): 35.8 µM | TGI (NCI-H522 lung): 31.1 µM | TGI (NCI/ADR-RES ovarian): 61.2 µM | TGI (OVCAR-3 ovarian): 39 µM | TGI (OVCAR-4 ovarian): 32.5 µM | TGI (OVCAR-5 ovarian): 41.7 µM | TGI (OVCAR-8 ovarian): 41.6 µM | TGI (PC-3 prostate): 48.5 µM | TGI (RPMI-8226 leukemia): 44 µM | TGI (RXF 393 renal): 25.8 µM | TGI (SF-268 CNS): 79.7 µM | TGI (SF-295 CNS): 79 µM | TGI (SF-539 CNS): 48.9 µM | TGI (SK-MEL-2 melanoma): 47.4 µM | TGI (SK-MEL-5 melanoma): 29.3 µM | TGI (SK-OV-3 ovarian): 83.8 µM | TGI (SN12C renal): 70 µM | TGI (SNB-19 CNS): 39.2 µM | TGI (SNB-75 CNS): 36.6 µM | TGI (SR leukemia): 39.3 µM | TGI (SW-620 colon): 24.5 µM | TGI (T-47D breast): 33.2 µM | TGI (TK-10 renal): 32.4 µM | TGI (U251 CNS): 36.1 µM | TGI (UACC-257 melanoma): 33.2 µM | TGI (UACC-62 melanoma): 42.4 µM | TGI (UO-31 renal): 34.4 µM

CCOC(=O)c1cc(C)nc2c1c(=O)n(-c1ccccc1)c(=O)n2CCCCN1CCN(c2ncccn2)CC1
TGI (786-0 renal): > 100 µM | TGI (A498 renal): > 100 µM | TGI (A549 NSCLC): > 100 µM | TGI (ACHN renal): > 100 µM | TGI (BT-549 breast): > 100 µM | TGI (CAKI-1 renal): 83.8 µM | TGI (CCRF-CEM leukemia): 97.7 µM | TGI (COLO 205 colon): > 100 µM | TGI (DU-145 prostate): > 100 µM | TGI (EKVX NSCLC): > 100 µM | TGI (HCC-2998 colon): > 100 µM | TGI (HCT-116 colon): > 100 µM | TGI (HL-60(TB) leukemia): 57.1 µM | TGI (HOP-62 NSCLC): > 100 µM | TGI (HOP-92 NSCLC): > 100 µM | TGI (HS 578T breast): > 100 µM | TGI (HT29 colon): > 100 µM | TGI (IGROV1 ovarian): > 100 µM | TGI (K-562 leukemia): > 100 µM | TGI (KM12 colon): > 100 µM | TGI (LOX IMVI melanoma): > 100 µM | TGI (M14 melanoma): > 100 µM | TGI (MALME-3M melanoma): > 100 µM | TGI (MCF7 breast): > 100 µM | TGI (MDA-MB-231 breast): > 100 µM | TGI (MDA-MB-435): > 100 µM | TGI (MDA-N): > 100 µM | TGI (MOLT-4 leukemia): > 100 µM | TGI (NCI-H226 lung): > 100 µM | TGI (NCI-H23 lung): > 100 µM | TGI (NCI-H522 lung): > 100 µM | TGI (NCI/ADR-RES ovarian): > 100 µM | TGI (OVCAR-3 ovarian): > 100 µM | TGI (OVCAR-5 ovarian): > 100 µM | TGI (OVCAR-8 ovarian): > 100 µM | TGI (PC-3 prostate): > 100 µM | TGI (RPMI-8226 leukemia): > 100 µM | TGI (RXF 393 renal): > 100 µM | TGI (SF-268 CNS): > 100 µM | TGI (SF-295 CNS): > 100 µM | TGI (SK-MEL-2 melanoma): > 100 µM | TGI (SK-MEL-28 melanoma): > 100 µM | TGI (SK-MEL-5 melanoma): > 100 µM | TGI (SK-OV-3 ovarian): > 100 µM | TGI (SN12C renal): > 100 µM | TGI (SNB-75 CNS): > 100 µM | TGI (SR leukemia): > 100 µM | TGI (SW-620 colon): > 100 µM | TGI (T-47D breast): > 100 µM | TGI (TK-10 renal): > 100 µM | TGI (U251 CNS): > 100 µM | TGI (UACC-257 melanoma): > 100 µM | TGI (UACC-62 melanoma): > 100 µM | TGI (UO-31 renal): > 100 µM
